Columns and labels:
[1] = test system: NCI-H187; assay: Cytotoxicity against human NCI-H187 cells by resazurin staining based analysis; type: functional, cell-based
[2] = Antioxidant activity assessed as DPPH radical scavenging activity incubated for 30 min by DPPH assay; type: functional
[3] = Cytotoxicity against African green monkey Vero cells by green fluorescent protein-based assay; type: toxicity, cell-based; conditions: African green monkey (Chlorocebus sabaeus)
[4] = test system: MCF7; assay: Cytotoxicity against human MCF7 cells by resazurin staining based analysis; type: functional, cell-based

| SMILES | IC50 [2] [µM] | IC50 [1] [µM] | IC50 [3] [µM] | IC50 [4] [µM] |
| --- | --- | --- | --- | --- |
| CC1(C)Oc2ccc(O)cc2C(O)C1O (stereo not given) | > 1900 | 9.1 | > 240 | > 240 |
| COc1ccc2c(c1)C(O)C(O)C(C)(C)O2 (stereo not given) | > 1800 | > 230 | 220 | > 220 |
| COc1cc2c(cc1O)OC(C)(C)[C@H]1[C@H]3[C@@H](O[C@@H]21)c1cc(OC)c(O)cc1OC3(C)C (racemic) | 540 | > 120 | > 120 | > 120 |
| COc1cccc2c1C(=O)c1c(O)c3c(c(O)c1C2=O)C[C@@](O)(C(=O)CO)C[C@@H]3O[C@H]1C[C@H](N)[C@H](O)[C@H](C)O1 [DOXORUBICIN] |  | 0.084 |  | 12 |
| Cc1c2ccncc2c(C)c2c1[nH]c1ccccc12 [ELLIPTECINE] |  | 7.8 | > 5.4 |  |
| CC/C(=C(\c1ccccc1)c1ccc(OCCN(C)C)cc1)c1ccccc1 [TAMOXIFEN] |  |  |  | 23 |

The remaining molecules from weak to strong by IC50 [2], led by results:

| IC50 [2] [µM] | SMILES | IC50 [1] [µM] | IC50 [3] [µM] | IC50 [4] [µM] |
| --- | --- | --- | --- | --- |
| 370 | CC1(C)C=Cc2cc3c(cc2O1)O[C@@H]1c2cc(O)c(O)cc2OC(C)(C)[C@@H]1O3 (racemic) | 45 | 46 | 66 |
| 180 | COc1cc2c(cc1O)OC(C)(C)C(O)C2 (racemic) | 55 | > 220 | > 220 |
| 68 | O=C1O[C@H]([C@@H](O)CO)C(O)=C1O [ASCORBIC ACID] |  |  |  |
| 66 | CC1(C)Oc2cc(O)c(O)cc2[C@@H]2O[C@H]3c4cc(O)c(O)cc4OC(C)(C)[C@H]3[C@@H]21 (racemic) | 48 | > 130 | > 130 |

— ChEMBL document CHEMBL6103617, “Chromene Dimers from Cultures of Basidiomycete Panus similis” (J Nat Prod, 2025)
